Experimental data published in patent US20220064260A1, “ISOLATED MHC-DERIVED HUMAN PEPTIDES AND USES THEREOF FOR STIMULATING AND ACTIVATING THE SUPPRESSIVE FUNCTION OF CD8+CD45RCLOW TREGS” (INSERM (INSTITUT NATIONAL DE LA SANTÉ ET DE LA RECHERCHE …, priority 2018, published 2022).

Columns and labels:
CD8+CD45RClow Tregs [1] = assay: Peptide stimulation assay (CD8+CD45RClow Treg activation by CD25 and CD69 expression); type: cell-based, human; settings: 5-days culture, syngeneic CD8+CD45RClow Tregs and autologous HLA-A2+ pDCs, IL-2 and CpG ODN, peptide 120 μg/ml, versus control peptide
Experimental: Peptide Stimulation Assay
CD8^+ CD45RC^low Treg cells and autologous pDCs from the same healthy HLA-A2^+ donor were co-cultured in serum-free Texmacs medium (Miltenyi Biotec) supplemented with IL-2 (25 U/ml, Proleukin, Novartis), CpG ODN 2006 (0.5 μM) and the different synthesized peptides (120 μg/ml) at a ratio 4:1 of Tregs:pDCs for 5 days. CD8^+CD45RC^low Treg activation was analyzed based on expression of CD69 and CD25 markers. As negative control and in order to normalize the results, a negative peptide was used (ALIAPVHAV). Dapi was used as viability marker. As a positive control, CD8^+ CD45RC^low Tregs were stimulated with anti-CD3 (OKT3, 1 μg/ml) and anti-CD28 mAbs (clone: CD28.2; 1 μg/ml). Results were analyzed using the FACS Canto II cytometer (BD Biosciences) and Flowjo software (Tree Star, Inc. USA, version 10).
For the peptide activation test, a non-parametric Wilcoxon signed-rank test, comparing column median to a hypothetical value of 1.0, was done. Analyses were made with GraphPad Prism 7 software (GraphPad).
Four 16aa peptides were designed from four random human MHC class II alleles based on the sequences of the Du51 peptide (NREEYARFDSDVGEYR) and the overlapping 12-mer peptide Bu31-10 (YLRYDSDVGEYR) both bearing the SDVGEYR motif at C-term end (FIG. 1): Hpep1 (NQEESVRFDSDVGEFR-SEQ ID NO: 1), Hpep2 (NREEYARFDSDVGEFR-SEQ ID NO: 2), Hpep3 (NREEYARFDSDVGVYR-SEQ ID NO: 3) and Hpep4 (NREEYVRFDSDVGEYR-SEQ ID NO: 4). We individually tested these peptides differing at positions 2, 5, 6, 14 or 15 in a 5-days culture assay using and syngeneic CD8^+CD45RC^low Tregs and autologous HLA-A2^+ pDCs from the same individuals in presence of interleukin-2 (IL-2) and CpG oligodeoxynucleotides (or CpG ODN) in serum free Texmacs medium (FIG. 2). […] These three peptides share the conserved SDVGE-X-R (SEQ ID NO: 13) 7aa motif while Hpep3 has in addition a valine (V) in place of the glutamic acid (E) at position 14 of the peptide, probably impacting TCR recognition.

CD4+CD25- T cells = assay: Suppression assay (proliferation of CFSE-labeled CD4+CD25- Teffs stimulated with allogeneic APCs); type: cell-based, human; settings: Tregs expanded 14 days, co-cultured 5 days at 1:1:1 with syngeneic CD4+CD25- T cells and pooled allogeneic APCs; compared to fresh Tregs
Experimental: CFSE-labeled CD4^+ CD25^− Teffs and CD8^+ CD45RC^low Tregs from the same healthy volunteer (HLA-A2^+) were co-cultured with a pool of allogeneic APCs from 3 different healthy donors (HLA-A2^−) in RPMI1640 medium supplemented with 5% human AB serum. Culture was done at 1:1:1 ratio (where 1=5×10^4 cells/well) for 5 days in triplicate in a V-bottom 96 well plate. Proliferation of CD4^+CD25^− responder T cells was analyzed by flow cytometry (FACS Canto II BD Biosciences TM) by gating on CD3^+CD4^+ living cells (DAPI negative) and using Flowjo software (Tree Star, Inc. USA, version 10).

CD8+CD45RClow Tregs [2] = assay: Expansion in vitro of human CD8+CD45RClow Tregs; type: cell-based; settings: 14 days culture with autologous APCs, IL-2, IL-15 and CpG ODN, versus day 0
Experimental: Expansion In Vitro of Human CD8^+CD45RC^low Tregs
5×10^5 CD8^+CD45RC^low Tregs and 2×10^6 autologous APCs from HLA-A2^+ healthy donors were seeded in a 24 well plate in Texmacs Medium (Miltenyi Biotec), supplemented with penicillin (100 U/ml), streptomycin (100 μg/ml), rhlL-2 (1000 U/ml, Proleukin, Novartis), rhIL-15 (10 ng/ml, Miltenyi Biotec), CpG (0.5 μM), and the different peptides (120 μg/ml) derived from HLA-II molecule (GenScript). As negative control, a negative irrelevant peptide (ALIAPVHAV) was used. As a positive control, CD8^+CD45RC^low Tregs were stimulated with plate-coated anti-CD3 (clone: OKT3, 1 μg/ml) mAb and soluble anti-CD28 mAb (clone: CD28.2; 1 μg/ml). At day 7, Tregs were counted and re-expanded. Cytokines were freshly added twice a week. Finally, at day 14, cells were used for experiments.
To determine whether CD8^+ CD45RC^low Tregs could be expanded using this MHC-II derived peptide, an expansion protocol was set up using sorted CD8^+CD45RC^low/− Tregs and APCs from the same individual with the Hpep2 peptide in presence of IL-2, IL-15 and CpG ODN and compared to a polyclonal stimulation (anti-CD3/28) in similar conditions (FIG. 4).

CD8+CD45RClow Tregs [3] = assay: Extracellular and intracellular stainings of expanded Tregs (flow cytometry); type: cell-based, human; settings: 14 days expansion, Hpep2 versus anti-CD3/28 expanded Tregs
Experimental: Extracellular and Intracellular Stainings
For the analysis of GITR (clone: DT5D3, Miltenyi Biotec), Foxp3 (clone:259D/C7, BD Biosciences), IL-10 (clone: JES3-9D7 , BD Biosciences), IL-34 (clone: IC5265P, R&D), TGFβ1 (clone: TW4-9E7, BD Biosciences) and IFNγ (clone: B27, BD Biosciences), CD8^+CD45RC^low Treg cells were stimulated with PMA (50 ng/ml) and ionomycin (1 μg/ml) for 5 h in presence of Brefeldin A (10 μg/ml) for the last 4 hours in Texmacs medium (Miltenyi Biotec). In order to select viable cells, Fixable Viability Dye eF506 (ThermoFisher Scientific) was used as viability marker. Fc receptors were blocked before staining (BD Biosciences) and cells were permeabilized with Fix/Perm kit (Ebiociences) for intracellular staining Cell phenotype was analyzed by flow cytometry using the LSR II (BD Biosciences, Mountain View, Calif.) and Flowjo software (Tree Star. Inc. USA, version 10).

allograft = settings: rats treated with the peptide only (WO2015/150492); cited from earlier work

Row | Sequence | CD25 expression on Tregs (CD8+CD45RClow Tregs [1]) | CD69 expression on Tregs (CD8+CD45RClow Tregs [1]) | suppressive activity of expanded CD8+CD45RClow Tregs on an allogeneic immune response (CD4+CD25- T cells) | total Treg fold expansion (CD8+CD45RClow Tregs [2]) [fold] | level of expression of Foxp3, GITR, IL-10, IFNγ and IL-34 in expanded CD8+CD45RClow Tregs (CD8+CD45RClow Tregs [3]) | allograft tolerance in recipient rats (allograft)
1 | NQEESVRFDSDVGEFR (listed as Homo sapiens) [Hpep1, 16aa peptide designed from a human MHC class II allele] | upregulated | upregulated |  |  |  | 
2 | NREEYARFDSDVGEFR (listed as Homo sapiens) [Hpep2, 16aa peptide designed from a human MHC class II allele] | upregulated | upregulated | efficient at suppressing an allogeneic immune response | 10 | no significant differences | 
3 | NREEYARFDSDVGEYR [Du51, dominant MHC class II-derived antigen recognized by TCR-biased CD8+ Tregs in rats (WO2015/150492)] |  |  |  |  |  | donor-specific allograft tolerance induction
4 | NREEYVRFDSDVGEYR (listed as Homo sapiens) [Hpep4, 16aa peptide designed from a human MHC class II allele] | upregulated | upregulated |  |  |  | 
